Measured values taken from US20240059698A1 (Accutar Biotechnology Inc., priority 2022, published 2024).

What was measured:
[1] = tested on: HCC827-SVD cells (human EGFR exon 20 insertion mutant D770_N771insSVD); experiment: Cell growth inhibition (CellTiter-Glo), HCC827-SVD; assay type: cell-based; details: 72 h, 3 days
Procedure: (§1) Generation of HCC827-SVD, HCC827-ASV, and HCC827-YVMA cell lines. The HCC827-SVD cell line was generated by first transducing HCC827 cells (ATCC) with lentiviral particles expressing codon-optimized human EGFR exon 20 insertion mutant D770_N771insSVD, and then selecting under 5 µg/mL puromycin treatment for a week. The resulting cells were further transduced with lentiviral particles carrying EGFR sgRNA and CAS9 to knockout the endogenous alleles of EGER and then selected under 500 µg/mL hygromycin B treatment for two weeks. The limiting dilution approach was used to subsequently generate the single clone of the HCC827-SVD stable cell line. Endogenous EGFR knockout was confirmed by Sanger sequencing of cell genomic DNA, and expression of exogenous mutant EGFR was verified by Western blot analysis.
(§2) 2. Cell Growth Inhibition for HCC827, HCC827-SVD, HCC827-ASV, HCC827-YVMA, and A431.
(§3) HCC827(ATCC), HCC827-SVD, HCC827-ASV, and HCC827-YVMA cells were seeded in 96-well plates at 5000 cells/well in 90 μL of RPMI growth medium containing 10% FBS and 1% Penicillin Streptomycin. A431 (ATCC) cells were seeded in 96-well plates at 5000 cells/well in 90 μL of DMEM growth medium containing 10% FBS and 1% Penicillin Streptomycin. Cells were incubated at 37° C. overnight and then administered with 10 μL 10× test compounds prepared in the growth medium at various concentrations. After administration of the compounds, cells were incubated at 37° C. for 3 days. Before the CellTiter-Glo assay, the plates were equilibrated at room temperature for approximately 30 minutes. 100 ul of CellTiter-Glo reagent (Promega) was added to each well. The plates were then incubated at room temperature for 10 minutes and luminescence was recorded by the EnSight® multimode plate reader (PerkinElmer). Table 7 listed selected compounds in cellular growth assay.

[2] = tested on: HCC827-YVMA cells (human ERBB2 exon20 insertion mutant A775_G776ins YVMA); experiment: Cell growth inhibition (CellTiter-Glo), HCC827-YVMA; assay type: cell-based; details: 72 h, HCC827-YVMA cells, 3 days, CellTiter-Glo, read-out: Cell growth inhibition, GI50 (nM) HCC827-YVMA
Procedure: as §1
HCC827-ASV and HCC827-YVMA cell lines were generated in a similar approach as HCC827-SVD, except that HCC827 cells (ATCC) were first transduced with lentiviral particles expressing codon-optimized human EGFR exon 20 insertion mutant V769_D770insASV and human ERBB2 exon20 insertion mutant A775_G776ins YVMA, respectively.
as §2, §3

Row | SMILES | GI50 [1] [nM] | GI50 [2] [nM]
1 | C=CC(=O)N1CCC(c2c[nH]c3ncnc(Nc4ccc(Oc5ccnc(Nc6cccnc6)c5)cc4F)c23)CC1 [Compound 65, 1-(4-(4-((2-fluoro-4-((2-(pyridin-3-ylamino)pyridin-4-yl)oxy)phenyl)amino)-7H-pyrrolo[2,3-d]pyrimidin-5-yl)piperidin-1-yl)prop-2-en-1-one] | 200 to 1000 | 200 to 1000
2 | C=CC(=O)N1CCC(c2c[nH]c3ncnc(Nc4ccc(Oc5ccnc(-c6ccn(C)n6)c5)cc4F)c23)CC1 [Compound 66, 1-(4-(4-((2-fluoro-4-((2-(1-methyl-1H-pyrazol-3-yl)pyridin-4-yl)oxy)phenyl)amino)-7H-pyrrolo[2,3-d]pyrimidin-5-yl)piperidin-1-yl)prop-2-en-1-one] | 200 to 1000 | 50 to 200
3 | C=CC(=O)N1CCC(c2c[nH]c3ncnc(Nc4ccc(OCc5nnc[nH]5)c(Cl)c4)c23)CC1 [Compound 67, 1-(4-(4-((4-((4H-1,2,4-triazol-3-yl)methoxy)-3-chlorophenyl)amino)-7H-pyrrolo[2,3-d]pyrimidin-5-yl)piperidin-1-yl)prop-2-en-1-one] | 200 to 1000 | 200 to 1000
4 | C=CC(=O)N1CCC(c2c[nH]c3ncnc(Nc4ccc(OCc5cnc6n5CCCC6)c(Cl)c4)c23)CC1 [Compound 68, 1-(4-(4-((3-chloro-4-((5,6,7,8-tetrahydroimidazo[1,2-a]pyridin-3-yl)methoxy)phenyl)amino)-7H-pyrrolo[2,3-d]pyrimidin-5-yl)piperidin-1-yl)prop-2-en-1-one] | < 50 | < 50
5 | C=CC(=O)N1CCC(c2c[nH]c3ncnc(Nc4ccc(CNc5ccccn5)cc4F)c23)CC1 [Compound 69, 1-(4-(4-((2-fluoro-4-((pyridin-2-ylamino)methyl)phenyl)amino)-7H-pyrrolo[2,3-d]pyrimidin-5-yl)piperidin-1-yl)prop-2-en-1-one] | < 50 | < 50
6 | C=CC(=O)N1CCC(c2c[nH]c3ncnc(Nc4ccc(C(=O)Nc5ccccn5)cc4F)c23)CC1 [Compound 70, 4-((5-(1-acryloylpiperidin-4-yl)-7H-pyrrolo[2,3-d]pyrimidin-4-yl)amino)-3-fluoro-N-(pyridin-2-yl)benzamide] | < 50 | 50 to 200
7 | C=CC(=O)N1CCC(c2c[nH]c3ncnc(Nc4ccc(OCc5cnccc5OC)c(Cl)c4)c23)CC1 [Compound 71, 1-(4-(4-((3-chloro-4-((4-methoxypyridin-3-yl)methoxy)phenyl)amino)-7H-pyrrolo[2,3-d]pyrimidin-5-yl)piperidin-1-yl)prop-2-en-1-one] | < 50 | < 50
8 | C=CC(=O)N1CCC(c2c[nH]c3ncnc(Nc4ccc(Oc5ccnc(Nc6nccs6)c5)cc4F)c23)CC1 [Compound 72, 1-(4-(4-((2-fluoro-4-((2-(thiazol-2-ylamino)pyridin-4-yl)oxy)phenyl)amino)-7H-pyrrolo[2,3-d]pyrimidin-5-yl)piperidin-1-yl)prop-2-en-1-one] | 200 to 1000 | 50 to 200
9 | C=CC(=O)N1CCC(c2c[nH]c3ncnc(Nc4ccc(OCc5ccc6cc[nH]c6n5)c(Cl)c4)c23)CC1 [Compound 73, 1-(4-(4-((4-((1H-pyrrolo[2,3-b]pyridin-6-yl)methoxy)-3-chlorophenyl)amino)-7H-pyrrolo[2,3-d]pyrimidin-5-yl)piperidin-1-yl)prop-2-en-1-one] | < 50 | < 50
10 | C=CC(=O)N1CCC(c2c(-c3ccc(N4CCN(C)CC4)cc3)[nH]c3ncnc(Nc4ccc(OCc5ccccn5)c(Cl)c4)c23)CC1 [Compound 74, 1-(4-(4-((3-chloro-4-(pyridin-2-ylmethoxy)phenyl)amino)-6-(4-(4-methylpiperazin-1-yl)phenyl)-7H-pyrrolo[2,3-d]pyrimidin-5-yl)piperidin-1-yl)prop-2-en-1-one] | < 50 | < 50
11 | C=CC(=O)N1CCC(c2c[nH]c3ncnc(Nc4ccc(OCc5ccc6sccc6n5)c(Cl)c4)c23)CC1 [Compound 75, 1-(4-(4-((3-chloro-4-(thieno[3,2-b]pyridin-5-ylmethoxy)phenyl)amino)-7H-pyrrolo[2,3-d]pyrimidin-5-yl)piperidin-1-yl)prop-2-en-1-one] | < 50 | < 50
12 | C=CC(=O)N1CCC(c2c(C)[nH]c3ncnc(Nc4ccc(OCc5ccccn5)c(Cl)c4)c23)CC1 [Compound 76, 1-(4-(4-((3-chloro-4-(pyridin-2-ylmethoxy)phenyl)amino)-6-methyl-7H-pyrrolo[2,3-d]pyrimidin-5-yl)piperidin-1-yl)prop-2-en-1-one] | < 50 | < 50
13 | C=CC(=O)N1CCC(c2c[nH]c3ncnc(Nc4ccc(OCc5cncnc5)c(Cl)c4)c23)CC1 [Compound 77, 1-(4-(4-((3-chloro-4-(pyrimidin-5-ylmethoxy)phenyl)amino)-7H-pyrrolo[2,3-d]pyrimidin-5-yl)piperidin-1-yl)prop-2-en-1-one] | < 50 | < 50
14 | C=CC(=O)N1CCC(c2c[nH]c3ncnc(Nc4ccc(Oc5ccnc(Nc6cnccn6)c5)cc4F)c23)CC1 [Compound 78, 1-(4-(4-((2-fluoro-4-((2-(pyrazin-2-ylamino)pyridin-4-yl)oxy)phenyl)amino)-7H-pyrrolo[2,3-d]pyrimidin-5-yl)piperidin-1-yl)prop-2-en-1-one] | 200 to 1000 | 50 to 200
15 | C=CC(=O)N1CCC(c2c[nH]c3ncnc(Nc4ccc(OCc5ccnc(N6CC7CC7C6)c5)cc4F)c23)CC1 (centres unmarked) [Compound 79, 1-(4-(4-((4-((2-(3-azabicyclo[3.1.0]hexan-3-yl)pyridin-4-yl)methoxy)-2-fluorophenyl)amino)-7H-pyrrolo[2,3-d]pyrimidin-5-yl)piperidin-1-yl)prop-2-en-1-one] | 200 to 1000 | 200 to 1000
16 | C=CC(=O)N1CCC(c2c[nH]c3ncnc(Nc4ccc(OCc5cncc(OC)c5)c(Cl)c4)c23)CC1 [Compound 80, 1-(4-(4-((3-chloro-4-((5-methoxypyridin-3-yl)methoxy)phenyl)amino)-7H-pyrrolo[2,3-d]pyrimidin-5-yl)piperidin-1-yl)prop-2-en-1-one] | < 50 | < 50
17 | C=CC(=O)N1CCC(c2c[nH]c3ncnc(Nc4ccc(OCc5ccnn5CC)c(Cl)c4)c23)CC1 [Compound 81, 1-(4-(4-((3-chloro-4-((1-ethyl-1H-pyrazol-5-yl)methoxy)phenyl)amino)-7H-pyrrolo[2,3-d]pyrimidin-5-yl)piperidin-1-yl)prop-2-en-1-one] | 50 to 200 | 50 to 200
18 | C=CC(=O)N1CCC(c2c[nH]c3ncnc(Nc4ccc(Oc5ccnc(-c6cccc(F)c6)c5)cc4F)c23)CC1 [Compound 82, 1-(4-(4-((2-fluoro-4-((2-(3-fluorophenyl)pyridin-4-yl)oxy)phenyl)amino)-7H-pyrrolo[2,3-d]pyrimidin-5-yl)piperidin-1-yl)prop-2-en-1-one] | > 1000 | 200 to 1000
19 | C=CC(=O)N1CCC(c2c[nH]c3ncnc(Nc4ccc(Oc5ccnc(Nc6ccncn6)c5)cc4F)c23)CC1 [Compound 83, 1-(4-(4-((2-fluoro-4-((2-(pyrimidin-4-ylamino)pyridin-4-yl)oxy)phenyl)amino)-7H-pyrrolo[2,3-d]pyrimidin-5-yl)piperidin-1-yl)prop-2-en-1-one] | 200 to 1000 | 50 to 200
